In patent US20130184222A1, “[…] ACTIVE COMPOSITIONS AND THEIR METHODS OF USE” (AGIOS PHARMACEUTICALS, INC, priority 2010, published 2013) one finds IC50 data, which are given here for 65 compounds.

pIC50: −log10 of the molar value. Where only a bound is given, the exact number is not on record here.

Sequence of IDH1 R132H (O75874 whole entry R132H): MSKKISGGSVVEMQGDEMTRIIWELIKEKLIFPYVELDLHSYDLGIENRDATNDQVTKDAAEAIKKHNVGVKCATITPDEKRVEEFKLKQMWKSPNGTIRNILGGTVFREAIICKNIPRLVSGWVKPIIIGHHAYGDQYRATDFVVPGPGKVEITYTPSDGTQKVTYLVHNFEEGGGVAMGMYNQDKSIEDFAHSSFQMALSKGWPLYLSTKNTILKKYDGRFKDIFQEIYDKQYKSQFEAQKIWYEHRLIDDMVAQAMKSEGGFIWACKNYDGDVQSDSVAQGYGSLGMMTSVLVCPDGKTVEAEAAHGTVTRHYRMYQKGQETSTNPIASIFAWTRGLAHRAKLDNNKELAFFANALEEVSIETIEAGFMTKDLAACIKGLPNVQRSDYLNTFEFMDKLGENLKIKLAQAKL

One assay concerns the target IDH1 R132H (Homo sapiens, UniProt O75874, R132H). Description: In vitro assay for IDH1 R132H inhibitors (NADPH/aKG, resazurin detection). The note with it: Table 4A; 0.2 μg/ml IDH1 R132H, 50 minutes at room temperature; read-out: IC50 (uM), IDH1 R132H Inhibition. The assay is classed as biochemical. How it is done: Assays were conducted in a volume of 76 μl assay buffer (150 mM NaCl, 10 mM MgCl2, 20 mM Tris pH 7.5, 0.03% bovine serum albumin) as follows in a standard 384-well plate: To 25 ul of substrate mix (8 uM NADPH, 2 mM aKG), 1 μl of test compound was added in DMSO. The plate was centrifuged briefly, and then 25 μl of enzyme mix was added (0.2 μg/ml IDH1 R132H) followed by a brief centrifugation and shake at 100 RPM. The reaction was incubated for 50 minutes at room temperature, then 25 μl of detection mix (30 μM resazurin, […]) was added and the mixture further incubated for 5 minutes at room temperature. The conversion of resazurin to resorufin was detected by fluorescent spectroscopy at Ex544 Em590 c/o 590.
The compounds of Formula I set forth in Table 1 and the compounds set forth in Table 2 were tested in this assay and the results set forth below in Table 4A and 4B.
For orientation: Alamar Blue is a resazurin reagent that responds to reducing activity.
Broadly, the IC50 is the midpoint of a concentration-inhibition curve. In the case of `Cc1ccccc1C(C(=O)NC1CCCCC1)N(C(=O)Cc1cccs1)C(C)(C)C` (centres unmarked) [Compound 69], the IC50 was not below 100 µM.

On to `Cc1ccccc1C(C(=O)NC1CCCCC1)N(C(=O)Cc1cccs1)C1CCCC1` (centres unmarked) [Compound 70], for which the IC50 fell in the range of 1 to 10 µM.

In the case of `Cc1ccccc1C(C(=O)NC1CCCCC1)N(Cc1ccccc1)C(=O)Cc1cccs1` (centres unmarked) [Compound 71], the IC50 was 1 to 10 µM.

As to `Cc1ccccc1C(C(=O)NC1CCCC1)N(C(=O)c1ccccn1)c1cccc(F)c1` (centres unmarked) [Compound 72], the IC50 was in the range of 1 to 10 µM.

For `Cc1ccccc1C(C(=O)NC1CCCCC1)N(C(=O)Cc1cccs1)c1ccc(Br)c(Cl)c1` (centres unmarked) [Compound 73], the IC50 fell in the range of 0.1 to 1 µM.

With `O=C(Cc1cccs1)N(c1cccc(F)c1)C1(C(=O)NC2CCCC2)CCCCCC1` [Compound 74], the 50% inhibitory concentration (IC50) lay in the range of 1 to 10 µM.

On to `Cc1ccccc1C(C(=O)NC1CCCC1)N(C(=O)CCl)c1ccccc1F` (centres unmarked) [Compound 75], for which the IC50 lay in the range of 1 to 10 µM.

On to `O=C(NC1CCCCC1)C(c1ccncc1)N(C(=O)Cc1cccs1)c1cccc(F)c1` (centres unmarked) [Compound 76], for which the IC50 fell in the range of 1 to 10 µM.

Regarding `COc1ccc(C(C(=O)NC2CCCCC2)N(C(=O)Cc2cccs2)c2cccc(F)c2)cc1` (centres unmarked) [Compound 77], the IC50 was not below 100 µM.

Take `Cc1ccc(C(C(=O)NC2CCCCC2)N(C(=O)Cc2cccs2)c2cccc(F)c2)cc1` (centres unmarked) [Compound 78]: the IC50 lay in the range of 0.1 to 1 µM.

Regarding `O=C(NC1CCCCC1)C(c1ccc(Cl)cc1)N(C(=O)Cc1cccs1)c1cccc(F)c1` (centres unmarked) [Compound 79], the IC50 fell in the range of 0.1 to 1 µM.

With `Cc1ccccc1C(C(=O)NC1CCCCCC1)N(C(=O)Cc1cccs1)c1cccc(F)c1` (centres unmarked) [Compound 80], the IC50 was not above 0.1 µM.

Regarding `O=C(NC1CCCCC1)C(c1ccccn1)N(C(=O)Cc1cccs1)c1cccc(F)c1` (centres unmarked) [Compound 81], the IC50 lay in the range of 1 to 10 µM.

With `O=C(NC1CCCCC1)C(Cc1ccccc1)N(C(=O)Cc1cccs1)c1cccc(F)c1` (centres unmarked) [Compound 82], the IC50 was 1 to 10 µM.

For the compound `O=C(NC1CCCCC1)C(c1ccc(-n2ccnc2)cc1)N(C(=O)Cc1cccs1)c1cccc(F)c1` (centres unmarked) [Compound 83], the half-maximal inhibitory concentration (IC50) lay within 10 to 100 µM.

With `O=C(NC1CCCCC1)C(c1ccc(C(F)(F)F)cc1)N(C(=O)Cc1cccs1)c1cccc(F)c1` (centres unmarked) [Compound 84], the IC50 is not below 100 µM.

`COCOc1ccc(C(C(=O)NC2CCCCC2)N(C(=O)Cc2cccs2)c2cccc(F)c2)cc1` (centres unmarked) [Compound 85]: the IC50 lay within 1 to 10 µM.

On to `CCCCc1ccc(C(C(=O)NC2CCCCC2)N(C(=O)Cc2cccs2)c2cccc(F)c2)cc1` (centres unmarked) [Compound 86], for which the half-maximal inhibitory concentration (IC50) was not below 100 µM.

As to `O=C(NC1CCCCC1)C(c1ccc(Br)o1)N(C(=O)Cc1cccs1)c1cccc(F)c1` (centres unmarked) [Compound 87], the IC50 is 0.1 to 1 µM.

As to `CC(C)Cc1ccc(C(C(=O)NC2CCCCC2)N(C(=O)Cc2cccs2)c2cccc(F)c2)cc1` (centres unmarked) [Compound 88], the IC50 was not below 100 µM.

Regarding `Cc1cccc(C(C(=O)NC2CCCCC2)N(C(=O)Cc2cccs2)c2cccc(F)c2)c1` (centres unmarked) [Compound 89], the IC50 fell in the range of 0.1 to 1 µM.

`O=C(NC1CCCCC1)C(c1cccnc1)N(C(=O)Cc1cccs1)c1cccc(F)c1` (centres unmarked) [Compound 90]: the IC50 was 1 to 10 µM.

With `O=C(NC1CCCCC1)C(c1cccc(O)c1)N(C(=O)Cc1cccs1)c1cccc(F)c1` (centres unmarked) [Compound 91], the IC50 fell in the range of 0.1 to 1 µM.

As for `O=C(NC1CCCCC1)C(c1ccc(O)cc1)N(C(=O)Cc1cccs1)c1cccc(F)c1` (centres unmarked) [Compound 92], the IC50 is 0.1 to 1 µM.

Regarding `CCCCCCCCOc1ccc(C(C(=O)NC2CCCCC2)N(C(=O)Cc2cccs2)c2cccc(F)c2)cc1` (centres unmarked) [Compound 93], the IC50 was 0.1 to 1 µM.

`O=C(NC1CCCCC1)C(c1cccs1)N(C(=O)Cc1cccs1)c1cccc(F)c1` (centres unmarked) [Compound 94]: the IC50 fell in the range of 0.1 to 1 µM.

In the case of `CC(=O)c1cccc(C(C(=O)NC2CCCCC2)N(C(=O)Cc2cccs2)c2cccc(F)c2)c1` (centres unmarked) [Compound 95], the IC50 was not below 100 µM.

As for `O=C(NC1CCCCC1)C(c1cccc(C(F)(F)F)c1)N(C(=O)Cc1cccs1)c1cccc(F)c1` (centres unmarked) [Compound 96], the IC50 lay in the range of 1 to 10 µM.

Regarding `Cc1ccccc1C(C(=O)NC1CCCCC1)N(C(=O)Cc1cccs1)c1cccc(Cl)c1Cl` (centres unmarked) [Compound 97], the 50% inhibitory concentration (IC50) is 1 to 10 µM.

Take `Cc1ccccc1C(C(=O)NC1CCCCC1)N(C(=O)Cc1cccs1)c1ccccc1Br` (centres unmarked) [Compound 98]: the IC50 was 0.1 to 1 µM.

As to `Cc1cccc(N(C(=O)Cc2cccs2)C(C(=O)NC2CCCCC2)c2ccccc2C)c1` (centres unmarked) [Compound 99], the IC50 was not above 0.1 µM.

As to `O=C(NC1CCCCC1)C(c1ccccc1)N(C(=O)Cc1cccs1)c1ccccc1` (centres unmarked) [Compound 100], the IC50 lay in the range of 0.1 to 1 µM.

On to `Cc1ccccc1C(C(=O)NC1CCCCC1)N(C(=O)Cc1cccs1)c1ccc2c(c1)OCO2` (centres unmarked) [Compound 101], for which the concentration for half-maximal inhibition (IC50) was 0.1 to 1 µM.

The same assay, now with this note: Table 4B; 0.2 μg/ml IDH1 R132H, 50 minutes at room temperature; read-out: IC50, IDH1 R132H Inhibition.
A word on the pIC50: it is −log10 of the IC50, conventionally taken in molar units. Consider `O=C(NC1CCCCC1)C(c1cc(F)cc(Cl)c1)N(C(=O)Cc1cccs1)c1cccc(F)c1` (centres unmarked) [Compound 102], for which the pIC50 was 6.00 to 7.00.

With `O=C(NC1CCCCC1)C(c1cc(Cl)ccc1Cl)N(C(=O)Cc1cccs1)c1cccc(F)c1` (centres unmarked) [Compound 103], the negative logarithm of the IC50 (pIC50) was 6.00 to 7.00.

Regarding `O=C(NC1CCCCC1)C(c1ccccc1Br)N(C(=O)Cc1cccs1)c1cccc(F)c1` (centres unmarked) [Compound 104], the pIC50 is not below 7.00.

As for `O=C(NC1CCCCC1)C(c1c(F)ccc(F)c1Cl)N(C(=O)Cc1cccs1)c1cccc(F)c1` (centres unmarked) [Compound 105], the pIC50 was 6.00 to 7.00.

On to `O=C(NC1CCCCC1)C(c1cc(F)c(F)cc1F)N(C(=O)Cc1cccs1)c1cccc(F)c1` (centres unmarked) [Compound 106], for which the pIC50 is 6.00 to 7.00.

With `O=C(NC1CCCCC1)C(c1cccc(Cl)c1)N(C(=O)Cc1cccs1)c1cccc(F)c1` (centres unmarked) [Compound 107], the pIC50 was 6.00 to 7.00.

With `O=C(NC1CCCCC1)C(c1ccccc1C(F)(F)F)N(C(=O)Cc1cccs1)c1cccc(F)c1` (centres unmarked) [Compound 108], the pIC50 was 6.00 to 7.00.

As to `Cc1ccccc1C(C(=O)NC(C)(C)C)N(C(=O)Cc1cccs1)c1cccc(F)c1` (centres unmarked) [Compound 109], the pIC50 was 6.00 to 7.00.

For `Cc1ccccc1NC(=O)C(c1ccccc1C)N(C(=O)Cc1cccs1)c1cccc(F)c1` (centres unmarked) [Compound 110], the negative logarithm of the IC50 (pIC50) was 6.00 to 7.00.

As to `Cc1ccccc1C(C(=O)NC1CCCCC1)N(C(=O)Cc1cccs1)c1cccnc1` (centres unmarked) [Compound 111], the pIC50 was 6.00 to 7.00.

On to `CCC(=O)Nc1cccc(N(C(=O)Cc2cccs2)C(C(=O)NC2CCCCC2)c2ccccc2C)c1` (centres unmarked) [Compound 112], for which the negative-log IC50 (pIC50) is 6.00 to 7.00.

As to `Cc1ccccc1C(C(=O)NC1CCCCC1)N(C(=O)Cc1cccs1)C1CCCCC1` (centres unmarked) [Compound 113], the pIC50 is 6.00 to 7.00.

For the compound `O=C(NC1CCCCC1)C(c1c(Br)ccc(Br)c1F)N(C(=O)Cc1cccs1)c1cccc(F)c1` (centres unmarked) [Compound 114], the pIC50 is 6.00 to 7.00.

With `O=C(NC1CCCCC1)C(c1cccc(Br)c1)N(C(=O)Cc1cccs1)c1cccc(F)c1` (centres unmarked) [Compound 115], the pIC50 was 6.00 to 7.00.

With `COc1ccccc1C(C(=O)NC1CCCCC1)N(C(=O)Cc1cccs1)c1cccc(F)c1` (centres unmarked) [Compound 116], the pIC50 was 6.00 to 7.00.

Turning to `Cc1ccc(N(C(=O)Cc2cccs2)C(C(=O)NC2CCCCC2)c2ccccc2C)cc1Cl` (centres unmarked) [Compound 117], the pIC50 was 6.00 to 7.00.

As for `Cc1ccccc1C(C(=O)NC1CCCCC1)N(C(=O)CCl)c1cccc(F)c1` (centres unmarked) [Compound 118], the negative logarithm of the IC50 (pIC50) was 6.00 to 7.00.

As for `Cc1ccccc1C(C(=O)NC1CCCCC1)N(C(=O)CNC1CC1)c1cccc(F)c1` (centres unmarked) [Compound 119], the pIC50 was 6.00 to 7.00.

On to `Cc1ccccc1C(C(=O)NC1CCCCC1)N(C(=O)CNC1CCC1)c1cccc(F)c1` (centres unmarked) [Compound 120], for which the pIC50 is 6.00 to 7.00.

Regarding `Cc1ccccc1C(C(=O)NC1CCCCC1)N(C(=O)CNC1CCCC1)c1cccc(F)c1` (centres unmarked) [Compound 121], the pIC50 was 6.00 to 7.00.

As to `Cc1ccccc1C(C(=O)NC1CCCCC1)N(C(=O)Cc1cccs1)c1cccc(C(F)(F)F)c1` (centres unmarked) [Compound 122], the pIC50 is 6.00 to 7.00.

Regarding `Cc1ccccc1C(C(=O)NC1CCCCC1)N(C(=O)Cc1cccs1)c1cccc(N2CCOCC2)c1` (centres unmarked) [Compound 123], the pIC50 was 6.00 to 7.00.

For `COc1cccc(N(C(=O)Cc2cccs2)C(C(=O)NC2CCCCC2)c2ccccc2C)c1` (centres unmarked) [Compound 124], the pIC50 is 6.00 to 7.00.

On to `Cc1ccccc1C(C(=O)NC1CCCCC1)N(C(=O)C1COc2ccccc2O1)c1cccc(F)c1` (centres unmarked) [Compound 125], for which the negative logarithm of the IC50 (pIC50) is 6.00 to 7.00.

Turning to `Cc1ccc(F)c(C(C(=O)NC2CCCCC2)N(C(=O)Cc2cccs2)c2cccc(F)c2)c1` (centres unmarked) [Compound 127], the pIC50 was 6.00 to 7.00.

Take `COc1ccc(F)c(C(C(=O)NC2CCCCC2)N(C(=O)Cc2cccs2)c2cccc(F)c2)c1` (centres unmarked) [Compound 128]: the pIC50 was 6.00 to 7.00.

Turning to `O=C(NC1CCCCC1)C(c1cc(F)ccc1Br)N(C(=O)Cc1cccs1)c1cccc(F)c1` (centres unmarked) [Compound 129], the pIC50 was 6.00 to 7.00.

For `Cc1cccc(C)c1C(C(=O)NC1CCCCC1)N(C(=O)Cc1cccs1)c1cccc(F)c1` (centres unmarked) [Compound 130], the pIC50 was 6.00 to 7.00.

With `CC(=O)c1cccc(N(C(=O)Cc2cccs2)C(C(=O)NC2CCCCC2)c2ccccc2C)c1` (centres unmarked) [Compound 131], the pIC50 was 6.00 to 7.00.

With `Cc1ccccc1C(C(=O)NC1CCCCC1)N(C(=O)c1ccc2c(c1)OCO2)c1cccc(F)c1` (centres unmarked) [Compound 132], the pIC50 is 6.00 to 7.00.

As for `Cc1ccccc1C(C(=O)NC1CCCCC1)N(C(=O)CNc1cccc(F)c1)c1cccc(F)c1` (centres unmarked) [Compound 133], the negative logarithm of the IC50 (pIC50) is 6.00 to 7.00.

For `Cc1ccccc1C(C(=O)NC1CCCCC1)N(C(=O)COc1ccccc1)c1cccc(F)c1` (centres unmarked) [Compound 136], the negative logarithm of the IC50 (pIC50) is 6.00 to 7.00.
